According to publication PMC8426418 (Therapeutic drug monitoring, 2021):
Values joined by “and” are separate entries in the source; they are usually repeats but may differ in a detail not shown here. Identical values can stand only once. Like-named read-outs stand apart in the source and are kept apart here.

Columns and labels:
[1] = format: in vivo, human; conditions: at delivery, three subjects; for maternal plasma steady-state concentration / umbilical cord venous plasma steady-state concentration: mean±SE; for fetal to maternal ratio (umbilical cord venous plasma to maternal plasma concentration): steady-state
[2] = Steady-state plasma concentrations of BUP and metabolites in pregnancy; conditions: for Css (dose-normalized steady-state plasma concentration) / metabolite/BUP steady-state concentration ratio: geometric mean [range]; for steady-state concentration relative to BUP: pregnant women and postpartum
[3] = for CL renal: female, human, urine and plasma, oral, CLR (renal clearance); for CL renal / CLR (renal clearance): geometric mean [range]; for change in formation clearance (CLf) during pregnancy compared to postpartum: T2 or T3 vs matched postpartum
[4] = cited from earlier work
[5] = postpartum (PP) matched to T2, n=5
[6] = postpartum (PP) matched to T3, n=5

Row | SMILES | maternal plasma steady-state concentration [1] [µM/g] | umbilical cord venous plasma steady-state concentration [1] [µM/g] | Css (dose-normalized steady-state plasma concentration) [2, 5] | Css (dose-normalized steady-state plasma concentration) [2, 6] | Css (dose-normalized steady-state plasma concentration) ([2]; second trimester (T2), n=5) | Css (dose-normalized steady-state plasma concentration) ([2]; third trimester (T3), n=5) | plasma concentration exceeding BUP concentration [4] | metabolite/BUP steady-state concentration ratio [2, 5] | metabolite/BUP steady-state concentration ratio [2, 6] | metabolite/BUP steady-state concentration ratio ([2]; second trimester (T2), n=5) | metabolite/BUP steady-state concentration ratio ([2]; third trimester (T3), n=5) | steady-state concentration relative to BUP ([2]; this study) | change in formation clearance (CLf) during pregnancy compared to postpartum [3] | CLR (renal clearance) [3, 5] | CLR (renal clearance) [3, 6] | CLR (renal clearance) ([3]; second trimester (T2), n=5) | CLR (renal clearance) ([3]; third trimester (T3), n=5) | further results
1 | CC(NC(C)(C)C)C(=O)c1cccc(Cl)c1 (stereo not drawn) [BUP, Bupropion, reference compound] | 0.5 ± 0.2 | 0.2 ± 0.1 | 0.53 [0.11–1.3] μM/g | 0.41 [0.11–1.1] μM/g | 0.33 [0.08–1.2] μM/g | 0.44 [0.19–1.2] μM/g | – | – | – | – | – | – | – | – | – | – | – | CL renal ([3]; second trimester (T2), n=5): 40 mL/min; CL renal ([3]; third trimester (T3), n=5): 30 mL/min
2 | CC(NC(C)(C)C)C(O)c1cccc(Cl)c1 (stereo not drawn) [Erythro, erythrohydrobupropion] | 0.5 ± 0.5 | 0.3 ± 0.3 | 0.67 [0.25–1.7] μM/g | 0.80 [0.25–1.7] μM/g | 0.49 [0.33–0.78] μM/g | 0.63 [0.52–0.79] μM/g | 3–30 fold | 1.3 [0.5–3.2] | 1.9 [1.2–3.2] | 1.5 [0.4–4.2] | 1.4 [0.6–2.7] | similar | no changes | 1.6 [0.36–9.7] L/h | 1.9 [0.36–9.7] L/h | 2.1 [0.91–4.4] L/h | 1.2 [0.74–1.7] L/h | –
3 | C[C@H]1NC(C)(C)CO[C@]1(O)c1cccc(Cl)c1 [OH-BUP, hydroxybupropion] | – | – | 16.3 [4.9–39.6] μM/g | 13.3 [4.9–39.6] μM/g | 15.1 [10.6–18.7] μM/g | 16.5 [6.3–30.9] μM/g | 3–30 fold | – | – | – | – | 28–33 fold and 30 fold | no changes | 0.10 [0.02–0.54] L/h | 0.10 [0.03–0.46] L/h | 0.20 [0.11–0.36] L/h | 0.08 [0.04–0.12] L/h | steady-state concentration relative to racemic BUP ([4]; non-pregnant subjects): 28 fold
4 | C[C@H]1NC(C)(C)CO[C@]1(O)c1cccc(Cl)c1 [R,R-OH-BUP] | 19.1 ± 12.0 | 6.4 ± 3.1 | 15.9 [5.5–35.7] μM/g | 14.0 [5.5–35.7] μM/g | 15.8 [10.0–22.2] μM/g | 13.7 [5.9–21.2] μM/g | – | 32.5 [15.8–77.2] | 35.6 [15.2–77.2] | 43.8 [16.4–178.7] | 33.7 [13.5–99.1] | – | – | 0.08 [0.02–0.45] L/h | 0.09 [0.03–0.35] L/h | 0.15 [0.07–0.32] L/h | 0.07 [0.05–0.09] L/h | R,R-OH-BUP exposure relative to S,S-OH-BUP [4]: up to 65 fold; R,R-OH-BUP concentration relative to S,S-OH-BUP ([4]; non-pregnant subjects): 40–65 fold; fetal to maternal ratio (umbilical cord venous plasma to maternal plasma concentration) [1]: 0.4±0.1; R,R-OH-BUP steady-state concentration relative to S,S-OH-BUP ([2]; this study): 14–20 fold
5 | C[C@@H](NC(C)(C)C)C(=O)c1cccc(Cl)c1 [R-BUP, R-bupropion, reference compound] | – | – | – | – | – | – | – | – | – | – | – | – | – | – | – | – | – | circulating concentration of R-BUP relative to S-BUP [4]: 3- to 6 fold
6 | CC(NC(C)(C)C)C(=O)c1ccc(O)c(Cl)c1 (stereo not drawn) [4’OH-BUP, 4’-hydroxy-bupropion] | – | – | – | – | – | – | – | – | – | – | – | – | no changes | – | – | – | – | –
7 | C[C@@H]1NC(C)(C)CO[C@@]1(O)c1cccc(Cl)c1 [S,S-OH-BUP] | 0.8 ± 0.6 | 0.4 ± 0.2 | 0.78 [0.10–2.2] μM/g | 0.64 [0.10–2.2] μM/g | 0.73 [0.20–1.4] μM/g | 0.83 [0.36–1.7] μM/g | – | 1.5 [0.7–5.9] | 1.6 [0.8–5.9] | 2.2 [1.0–6.0] | 1.9 [0.9–8.7] | – | – | 0.35 [0.09–3.5] L/h | 0.47 [0.09–3.5] L/h | 0.93 [0.31–3.4] L/h | 0.40 [0.24–0.72] L/h | –
8 | C[C@H](NC(C)(C)C)[C@@H](O)c1cccc(Cl)c1 [Threo, threohydrobupropion] | 4.9 ± 5.3 | 3.7 ± 4.3 | 4.1 [1.2–10.8] μM/g | 4.7 [1.2–10.8] μM/g | 3.4 [1.8–6.7] μM/g | 4.9 [3.1–10.7] μM/g | 3–30 fold | 7.8 [3.5–17.6] | 11.5 [9.7–17.6] | 10.3 [4.8–23.1] | 11.2 [5.6–16.6] | 8–10 fold and 10 fold | no changes | 2.4 [0.55–17.6] L/h | 2.9 [0.59–17.6] L/h | 3.9 [1.7–8.6] L/h | 2.0 [1.1–2.8] L/h | steady-state concentration relative to racemic BUP ([4]; non-pregnant subjects): 5 fold; fetal to maternal ratio (umbilical cord venous plasma to maternal plasma concentration) [1]: 0.7±0.1
